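96-well plates; 48 h exposure; 5 concentrations. Endpoints by linear interpolation between flanking doses. Not reached: highest tested concentration assigned. GI50 is the concentration that inhibits growth by half. TGI denotes the concentration required for complete inhibition of growth.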
Experiments:
Test in all cases: NCI anticancer screen, dose series, 48 h
HOP-62 NSCLC = system: HOP-62 NSCLC
MCF7 breast = system: MCF7 breast
IGROV1 ovarian = system: IGROV1 ovarian
NCI/ADR-RES ovarian = system: NCI/ADR-RES ovarian
KM12 colon = system: KM12 colon
786-0 renal = system: 786-0 renal
SN12C renal = system: SN12C renal
SR leukemia = system: SR leukemia
HS 578T breast = system: HS 578T breast
NCI-H522 lung = system: NCI-H522 lung
SNB-19 CNS = system: SNB-19 CNS
HT29 colon = system: HT29 colon
DU-145 prostate = system: DU-145 prostate
SNB-75 CNS = system: SNB-75 CNS
OVCAR-8 ovarian = system: OVCAR-8 ovarian
T-47D breast = system: T-47D breast
HCT-116 colon = system: HCT-116 colon
LOX IMVI melanoma = system: LOX IMVI melanoma
UO-31 renal = system: UO-31 renal
MALME-3M melanoma = system: MALME-3M melanoma
TK-10 renal = system: TK-10 renal
HCC-2998 colon = system: HCC-2998 colon
A549 NSCLC = system: A549 NSCLC
SF-539 CNS = system: SF-539 CNS
SW-620 colon = system: SW-620 colon
RXF 393 renal = system: RXF 393 renal
COLO 205 colon = system: COLO 205 colon
SK-OV-3 ovarian = system: SK-OV-3 ovarian
OVCAR-4 ovarian = system: OVCAR-4 ovarian
SF-268 CNS = system: SF-268 CNS
A498 renal = system: A498 renal
PC-3 prostate = system: PC-3 prostate
EKVX NSCLC = system: EKVX NSCLC
NCI-H226 lung = system: NCI-H226 lung
SK-MEL-28 melanoma = system: SK-MEL-28 melanoma
UACC-62 melanoma = system: UACC-62 melanoma
NCI-H23 lung = system: NCI-H23 lung
OVCAR-3 ovarian = system: OVCAR-3 ovarian
OVCAR-5 ovarian = system: OVCAR-5 ovarian
MOLT-4 leukemia = system: MOLT-4 leukemia
BT-549 breast = system: BT-549 breast
K-562 leukemia = system: K-562 leukemia
UACC-257 melanoma = system: UACC-257 melanoma
HL-60(TB) leukemia = system: HL-60(TB) leukemia
U251 CNS = system: U251 CNS
NCI-H460 lung = system: NCI-H460 lung
HOP-92 NSCLC = system: HOP-92 NSCLC
ACHN renal = system: ACHN renal
MDA-MB-435 = system: MDA-MB-435
HCT-15 colon = system: HCT-15 colon
CCRF-CEM leukemia = system: CCRF-CEM leukemia
M14 melanoma = system: M14 melanoma
MDA-MB-231 breast = system: MDA-MB-231 breast
RPMI-8226 leukemia = system: RPMI-8226 leukemia
SF-295 CNS = system: SF-295 CNS
SK-MEL-5 melanoma = system: SK-MEL-5 melanoma

CC/C(=C(\c1ccc(Cl)cc1)c1ccc(OCCN2CCCCC2)cc1)c1ccc(O)cc1
GI50 (HOP-62 NSCLC): 1770 nM
TGI (HOP-62 NSCLC): 3480 nM
GI50 (MCF7 breast): 62.2 nM
TGI (MCF7 breast): 2630 nM
GI50 (IGROV1 ovarian): 1910 nM
TGI (IGROV1 ovarian): 3940 nM
GI50 (NCI/ADR-RES ovarian): 1750 nM
TGI (NCI/ADR-RES ovarian): 3800 nM
GI50 (KM12 colon): 1900 nM
TGI (KM12 colon): 3740 nM
GI50 (786-0 renal): 1810 nM
TGI (786-0 renal): 3430 nM
GI50 (SN12C renal): 1690 nM
TGI (SN12C renal): 3230 nM
GI50 (SR leukemia): 1900 nM
TGI (SR leukemia): 4510 nM
GI50 (HS 578T breast): 1780 nM
TGI (HS 578T breast): 4510 nM
GI50 (NCI-H522 lung): 2010 nM
TGI (NCI-H522 lung): 4440 nM
GI50 (SNB-19 CNS): 1900 nM
TGI (SNB-19 CNS): 3540 nM
GI50 (HT29 colon): 2190 nM
TGI (HT29 colon): 5090 nM
GI50 (DU-145 prostate): 1870 nM
TGI (DU-145 prostate): 3580 nM
GI50 (SNB-75 CNS): 1490 nM
TGI (SNB-75 CNS): 3640 nM
GI50 (OVCAR-8 ovarian): 2110 nM
TGI (OVCAR-8 ovarian): 5200 nM
GI50 (T-47D breast): 1220 nM
TGI (T-47D breast): 3830 nM
GI50 (HCT-116 colon): 1980 nM
TGI (HCT-116 colon): 4260 nM
GI50 (LOX IMVI melanoma): 1670 nM
TGI (LOX IMVI melanoma): 3030 nM
GI50 (UO-31 renal): 1370 nM
TGI (UO-31 renal): 2660 nM
GI50 (MALME-3M melanoma): 1750 nM
TGI (MALME-3M melanoma): 3330 nM
GI50 (TK-10 renal): 1960 nM
TGI (TK-10 renal): 4580 nM
GI50 (HCC-2998 colon): 1850 nM
TGI (HCC-2998 colon): 3460 nM
GI50 (A549 NSCLC): 1810 nM
TGI (A549 NSCLC): 3700 nM
GI50 (SF-539 CNS): 1700 nM
TGI (SF-539 CNS): 3110 nM
GI50 (SW-620 colon): 1750 nM
TGI (SW-620 colon): 3420 nM
GI50 (RXF 393 renal): 1450 nM
TGI (RXF 393 renal): 2920 nM
GI50 (COLO 205 colon): 1820 nM
TGI (COLO 205 colon): 3860 nM
GI50 (SK-OV-3 ovarian): 2010 nM
TGI (SK-OV-3 ovarian): 4880 nM
GI50 (OVCAR-4 ovarian): 1970 nM
TGI (OVCAR-4 ovarian): 4350 nM
GI50 (SF-268 CNS): 1750 nM
TGI (SF-268 CNS): 3800 nM
GI50 (A498 renal): 3310 nM
TGI (A498 renal): 16500 nM
GI50 (PC-3 prostate): 1660 nM
TGI (PC-3 prostate): 3360 nM
GI50 (EKVX NSCLC): 1910 nM
TGI (EKVX NSCLC): 4350 nM
GI50 (NCI-H226 lung): 1850 nM
TGI (NCI-H226 lung): 4340 nM
GI50 (SK-MEL-28 melanoma): 1770 nM
TGI (SK-MEL-28 melanoma): 3330 nM
GI50 (UACC-62 melanoma): 1710 nM
TGI (UACC-62 melanoma): 3250 nM
GI50 (NCI-H23 lung): 1880 nM
TGI (NCI-H23 lung): 3840 nM
GI50 (OVCAR-3 ovarian): 1910 nM
TGI (OVCAR-3 ovarian): 3630 nM
GI50 (OVCAR-5 ovarian): 1860 nM
TGI (OVCAR-5 ovarian): 4040 nM
GI50 (MOLT-4 leukemia): 1760 nM
TGI (MOLT-4 leukemia): 4430 nM
GI50 (BT-549 breast): 2060 nM
TGI (BT-549 breast): 4200 nM
GI50 (K-562 leukemia): 1600 nM
TGI (K-562 leukemia): 4620 nM
GI50 (UACC-257 melanoma): 1830 nM
TGI (UACC-257 melanoma): 3940 nM
GI50 (HL-60(TB) leukemia): 1910 nM
TGI (HL-60(TB) leukemia): 4170 nM
GI50 (U251 CNS): 1600 nM
TGI (U251 CNS): 3160 nM
GI50 (NCI-H460 lung): 1820 nM
TGI (NCI-H460 lung): 3370 nM
GI50 (HOP-92 NSCLC): 1500 nM
TGI (HOP-92 NSCLC): 3200 nM
GI50 (ACHN renal): 1700 nM
TGI (ACHN renal): 3080 nM
GI50 (MDA-MB-435): 1720 nM
TGI (MDA-MB-435): 3200 nM
GI50 (HCT-15 colon): 1610 nM
TGI (HCT-15 colon): 3150 nM
GI50 (CCRF-CEM leukemia): 1910 nM
TGI (CCRF-CEM leukemia): 4930 nM
GI50 (M14 melanoma): 1880 nM
TGI (M14 melanoma): 3770 nM
GI50 (MDA-MB-231 breast): 1810 nM
TGI (MDA-MB-231 breast): 3290 nM
GI50 (RPMI-8226 leukemia): 1860 nM
TGI (RPMI-8226 leukemia): 4100 nM
GI50 (SF-295 CNS): 1720 nM
TGI (SF-295 CNS): 3130 nM
GI50 (SK-MEL-5 melanoma): 1680 nM
TGI (SK-MEL-5 melanoma): 3040 nM

— PubChem BioAssay (NCI)
